Experimental data: patent US20260354380A1, “PYRAZOLO PESTICIDAL COMPOUNDS” (BASF SE, priority 2022, published 2026)
Where two headings read alike, the source gives them in different places.

Experiments:
Assay type in all cases: in vivo
Dichromothrips corbetti = test: Action on Orchid Thrips (Dichromothrips corbetti); settings: for mortality at 300 ppm: Dichromothrips corbetti, read-out: mortality in comparison with untreated controls
Method: Example B2: Action on Orchid Thrips (Dichromothrips corbetti)
Dichromothrips corbetti adults used for bioassay were obtained from a colony maintained continuously under laboratory conditions. For testing purposes, the test compound is diluted in a 1:1 mixture of acetone: water (vol: vol), plus Kinetic® HV at a rate of 0.01% v/v.
Thrips potency of each compound was evaluated by using a floral-immersion technique. All petals of individual, intact orchid flowers were dipped into treatment solution and allowed to dryin Petri dishes. Treated petals were placed into individual re-sealable plastic along with about 20 adult thrips. All test arenas were held under continuous light and a temperature of about 28 °C for duration of the assay. After 3 days, the numbers of live thrips were counted on each petal. The percent mortality was recorded 72 hours after treatment.

Heliothis virescens = test: Action on Tobacco Budworm (Heliothis virescens); settings: for mortality at 800 ppm: Heliothis virescens, 120 h, read-out: mortality in comparison with untreated controls
How it was run: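 Compounds in 25% DMSO/75% water were sprayed at several concentrations onto insect diet in microtiter wells holding 15-25 eggs, two replications. After 5 days at about 28±1 °C and 80±5% RH, egg and larval mortality was scored visually.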

Spodoptera eridania = test: Action on Southern Armyworm (Spodoptera eridania), 2nd Instar Larvae; settings: for mortality at 300 ppm: read-out: mortality in comparison with untreated controls
How it was run: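 Compounds in 50% acetone/water with 0.01% nonionic surfactant sprayed electrostatically onto Lima bean plants at 1st true leaf stage. After drying, 10–11 2nd-instar larvae bagged with each pot, kept about 25 °C, 20–40% RH. Mortality and reduced feeding scored at 4 days vs untreated plants.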

Plutella xylostella [1] = test: Action on Diamond Back Moth (Plutella xylostella), cabbage leaf dip, 3rd instar larvae; settings: for mortality at 300 ppm: read-out: mortality in comparison with untreated controls
How it was run: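 Cabbage leaves dipped in compound solution (1:1 water:acetone, 0.01% v/v surfactant), air-dried, then infested with ten 3rd-instar larvae in petri dishes on moist filter paper. Mortality scored at 72 h after treatment; feeding damage rated on a 0–100% scale.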

Anthonomus grandis = test: Action on Boll Weevil (Anthonomus grandis); settings: for mortality at 800 ppm: Anthonomus grandis, 120 h, read-out: mortality in comparison with untreated controls
How it was run: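 Compounds in 75:25 water:DMSO sprayed at several concentrations onto insect diet in microtiter wells holding 5-10 eggs, two replicates. Plates kept 5 days at about 25±1 °C and 75±5% RH; egg and larval mortality scored visually.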

Aedes aegypti = test: whole plant or invertebrate; settings: for mortality at 800 ppm: Aedes aegypti, 48 h, read-out: mortality in comparison with untreated controls; for mortality in comparison with untreated controls: 800 ppm, larvae, 2 days
How it was run: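 Freshly hatched larvae (5-15 per well) were held in tap water, and compounds formulated in 25% DMSO/water were sprayed onto diet at several concentrations in duplicate. Larval mortality was scored visually after 2 days at 28±1 °C, 80±5% RH.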

Plutella xylostella [2] = test: Action on Diamond Back Moth (Plutella xylostella), microtiter plates, insect diet, eggs; settings: 800 ppm; egg and larval mortality; 5 days
How it was run: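 Diet in 96-well plates with 15–25 P. xylostella eggs, sprayed with compound formulated in 75% water/25% DMSO at several concentrations, two replicates; mixtures combined in equal volumes. Incubated 5 days at 28±1 °C, 80±5% RH, then egg and larval mortality scored visually.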

[3] = 300 ppm, adults, 72 hours after treatment
[4] = 800 ppm, egg and larval mortality, 5 days
[5] = Plutella xylostella, foliar, 72 h
[6] = 300 ppm, 2nd instar larvae, 4 days after treatment
[7] = 300 ppm, 3rd instar larvae, 72 hours after treatment

| Compound | mortality in comparison with untreated controls (Dichromothrips corbetti; [3]) | mortality in comparison with untreated controls (Heliothis virescens; [4]) | mortality in comparison with untreated controls (Spodoptera eridania; [6]) | mortality in comparison with untreated controls (Plutella xylostella [1]; [7]) | mortality in comparison with untreated controls (Anthonomus grandis; [4]) | mortality in comparison with untreated controls (Aedes aegypti) | other results |
| --- | --- | --- | --- | --- | --- | --- | --- |
| Cc1ccc(C(C)C)c(N2C(=O)CS/C2=N\C(=O)Nc2ccc(-n3cc(N(C)C(=O)c4ccc(OC(F)(F)F)cc4)c(C)n3)cc2)c1 [Example C-2, N-[1-[4-[[(Z)-[3-(2-isopropyl-5-methyl-phenyl)-4-oxo-thiazolidin-2-ylidene]carbamoyl]amino]phenyl]-3-methyl-pyrazol-4-yl]-N-methyl-4-(trifluoromethoxy)benzamide] |  |  |  |  |  |  | mortality at 300 ppm (Dichromothrips corbetti; [3]): ≥ 75%; mortality at 800 ppm (Heliothis virescens; [4]): ≥ 75%; mortality at 300 ppm (Spodoptera eridania; Spodoptera eridania, 96 h, 300 ppm, 2nd instar larvae, 4 days after treatment): ≥ 75%; mortality at 10 ppm (Spodoptera eridania; Spodoptera eridania, 96 h, Table R-1 comparative data, dose 10 ppm, test species PRODER, procedure analogous to B7): 82.5%; mortality at 10 ppm (Plutella xylostella [1]; Plutella xylostella, foliar, 72 h, Table R-1 comparative data, dose 10 ppm, test species PLUTMA, procedure analogous to B6): 100%; mortality at 300 ppm (Plutella xylostella [1]; Plutella xylostella, foliar, 300 ppm, 3rd instar larvae, 72 hours after treatment): ≥ 75%; mortality at 800 ppm (Anthonomus grandis; [4]): ≥ 75%; mortality at 800 ppm (Aedes aegypti): ≥ 50% |
| Cc1ccc(C(C)C)c(N2C(=O)CS/C2=N\C(=O)Nc2ccc(-n3nc(C)c(N(C)C(=O)c4ccc(OC(F)(F)F)cc4)c3Cl)cc2)c1 [Example C-3, N-[5-chloro-1-[4-[[(Z)-[3-(2-isopropyl-5-methyl-phenyl)-4-oxo-thiazolidin-2-ylidene]carbamoyl]amino]phenyl]-3-methyl-pyrazol-4-yl]-N-methyl-4-(trifluoromethoxy)benzamide] |  |  |  |  |  |  | mortality at 300 ppm (Dichromothrips corbetti; 72 h): ≥ 75%; mortality at 800 ppm (Heliothis virescens): ≥ 75%; mortality at 300 ppm (Spodoptera eridania; Spodoptera eridania, 96 h): ≥ 75%; mortality at 300 ppm (Plutella xylostella [1]; [5]): ≥ 75%; mortality at 800 ppm (Anthonomus grandis): ≥ 75%; mortality at 800 ppm (Aedes aegypti): ≥ 50% |
| Cc1ccc(C(C)C)c(N2C(=O)CS/C2=N\C(=O)Nc2ccc(-n3nc(C)c(NC(=O)c4ccc(OC(F)(F)F)cc4)c3C)cc2Cl)c1 [Example C-4, N-[1-[3-chloro-4-[[(Z)-[3-(2-isopropyl-5-methyl-phenyl)-4-oxo-thiazolidin-2-ylidene]carbamoyl]amino]phenyl]-3,5-dimethyl-pyrazol-4-yl]-4-(trifluoromethoxy)benzamide] |  |  |  |  |  |  | mortality at 300 ppm (Dichromothrips corbetti; 72 h): ≥ 75%; mortality at 800 ppm (Heliothis virescens): ≥ 75%; mortality at 300 ppm (Spodoptera eridania; Spodoptera eridania, 96 h): ≥ 75%; mortality at 300 ppm (Plutella xylostella [1]; [5]): ≥ 75%; mortality at 800 ppm (Anthonomus grandis): ≥ 75%; mortality at 800 ppm (Aedes aegypti): ≥ 50% |
| Cc1nn(-c2ccc(NC(=O)/N=C3\SCC(=O)N3c3cc(C4CC4)ccc3C(C)C)c(F)c2)cc1NC(=O)c1ccc(OC(F)(F)F)cc1 [Example C-7] | at least 75% | at least 75% | at least 75% | at least 75% | at least 75% | at least 50% |  |
| Cc1ccc(C(C)C)c(N2C(=O)CSC2=NC(=O)Nc2ccc(-n3cc(NC(=O)c4ccc(OC(F)(F)F)cc4)c(C)n3)cc2)c1 [Example C-9] | at least 75% | at least 75% | at least 75% | at least 75% | at least 75% | at least 50% |  |
| Cc1nn(-c2ccc(NC(=O)N=C3SCC(=O)N3c3cc(C#N)ccc3C(C)C)cc2)cc1NC(=O)c1ccc(OC(F)(F)F)cc1 [Example C-10] | at least 75% | at least 75% | at least 75% | at least 75% | at least 75% | at least 50% |  |
| Cc1ccc(C(F)(F)F)c(N2C(=O)CSC2=NC(=O)Nc2ccc(-n3cc(N(C)C(=O)c4ccc(OC(F)(F)F)cc4)c(C)n3)cc2)c1 [Example C-11] | at least 75% | at least 75% | at least 75% | at least 75% | at least 75% | at least 50% |  |
| Cc1nn(-c2ccc(NC(=O)/N=C3\SCC(=O)N3c3cc(N(C)C)ccc3C(C)C)cc2)c(C)c1NC(=O)c1ccc(OC(F)(F)F)cc1 [Example C-17] | at least 75% | at least 75% | at least 75% | at least 75% | at least 75% | at least 50% |  |
| Cc1ccc(C(C)C)c(N2C(=O)CS/C2=N\C(=O)Nc2ccc(-n3nc(C)c(NC(=O)c4ccc(OC(F)(F)F)cc4)c3C)cc2C)c1 [Example C-18] | at least 75% | at least 75% | at least 75% | at least 75% | at least 75% | at least 50% |  |
| Cc1ccc(C(C)C)c(N2C(=O)CS/C2=N\C(=O)Nc2ccc(-n3nc(C)c(NC(=O)c4ccc(OC(F)(F)F)cc4)c3C)cc2Br)c1 [Example C-19] | at least 75% | at least 75% | at least 75% | at least 75% | at least 75% | at least 50% |  |
| Cc1ccc(C(C)C)c(N2C(=O)CS/C2=N\C(=O)Nc2ccc(-n3nc(C)c(NC(=O)c4ccc(OC(F)(F)F)cc4)c3C)cc2OC(F)F)c1 [Example C-20] | at least 75% | at least 75% | at least 75% | at least 75% | at least 75% | at least 50% |  |
| Cc1ccc(C(C)C)c(N2C(=O)CS/C2=N\C(=O)Nc2ccc(-n3cc(NC(=O)c4cc(F)c(F)c(F)c4)c(C)n3)cc2)c1 [Example C-23] | at least 75% | at least 75% | at least 75% | at least 75% | at least 75% | at least 50% |  |
| Cc1ccc(C(C)C)c(N2C(=O)CS/C2=N\C(=O)Nc2ccc(-n3cc(NC(=O)c4ccc(F)c(F)c4)c(C)n3)cc2)c1 [Example C-25] | at least 75% | at least 75% | at least 75% | at least 75% | at least 75% | at least 50% |  |
| CCN(C(=O)c1ccc(OC(F)(F)F)cc1)c1c(C)nn(-c2ccc(NC(=O)/N=C3\SCC(=O)N3c3cc(C)ccc3C(C)C)c(Cl)c2)c1C [Example C-97] | at least 75% | at least 75% | at least 75% | at least 75% | at least 75% | at least 50% |  |
| Cc1ccc(C(C)C)c(N/C(=N/C(=O)Nc2ccc(-n3nc(C)c(NC(=O)c4ccc(OC(F)(F)F)cc4)c3C)cc2Cl)SCOC(=O)C(C)C)c1 [Example C-130] | at least 75% | at least 75% |  |  | at least 75% | at least 50% | mortality in comparison with untreated controls (Plutella xylostella [2]): at least 75% |
